Data as given in article PMC5653818, “A Brain Penetrant Mutant IDH1 Inhibitor Provides In Vivo Survival Benefit” (Scientific Reports, 2017).

Target: IDH1 R132H (mutant isocitrate dehydrogenase 1) (Homo sapiens, UniProt O75874, R132H)
Experiment: coupled enzymatic assay (GAPDH/PGK/luciferase luminescence) with R132H IDH1 enzyme
Assay type: biochemical

Chain of IDH1 R132H (mutant isocitrate dehydrogenase 1) (O75874 2-414 R132H): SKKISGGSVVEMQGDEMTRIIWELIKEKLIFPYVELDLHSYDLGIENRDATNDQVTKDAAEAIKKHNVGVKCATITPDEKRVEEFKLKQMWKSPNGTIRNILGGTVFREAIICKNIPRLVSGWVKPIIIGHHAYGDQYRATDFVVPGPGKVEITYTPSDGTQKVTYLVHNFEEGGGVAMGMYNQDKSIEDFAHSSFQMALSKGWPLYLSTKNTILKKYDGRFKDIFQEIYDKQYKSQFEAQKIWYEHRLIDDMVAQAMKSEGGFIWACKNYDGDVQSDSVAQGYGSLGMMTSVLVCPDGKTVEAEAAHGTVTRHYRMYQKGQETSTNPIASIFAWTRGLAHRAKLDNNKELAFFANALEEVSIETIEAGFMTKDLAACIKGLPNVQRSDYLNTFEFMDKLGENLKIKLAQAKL

O=C(C1CCc2ccccc2CC1)N1Cc2cccnc2Nc2ccc(N3CCOCC3)cc21 [MRK-A]
IC50: 5 nM
